Measurements reported in EP2140864A2 (H. Lundbeck A/S, priority 2001, dated 2002).
Like-named read-outs stand apart in the source and are kept apart here. Marks after values point to notes of the source that are not given here.

Legend:
human GAL2 receptor = biological target: T1, human GAL2 receptor (Homo sapiens, UniProt O43603); assay: Radioligand binding at cloned human GAL2 receptor; details: pyrimidines, read-out: Ki GalR2
T1 construct: expressed in transfected cells
T1 sequence (O43603 1-387): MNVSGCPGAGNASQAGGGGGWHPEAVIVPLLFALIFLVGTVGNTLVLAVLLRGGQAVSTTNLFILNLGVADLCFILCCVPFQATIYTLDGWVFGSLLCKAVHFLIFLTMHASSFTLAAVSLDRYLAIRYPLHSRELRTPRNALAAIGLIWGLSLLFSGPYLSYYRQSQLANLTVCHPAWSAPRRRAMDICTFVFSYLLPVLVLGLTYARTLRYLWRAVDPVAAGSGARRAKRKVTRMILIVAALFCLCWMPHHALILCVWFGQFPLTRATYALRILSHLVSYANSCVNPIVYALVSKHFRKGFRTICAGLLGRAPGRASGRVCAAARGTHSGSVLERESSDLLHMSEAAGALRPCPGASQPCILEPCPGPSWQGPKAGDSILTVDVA
Method: The binding properties of the pyrimidines of the present invention were evaluated at the cloned human galanin receptors, GAL1, GAL2, and GAL3, using protocols described herein.
The binding properties of the indolones of the present invention were evaluated at the cloned human galanin receptors, GAL1, GAL2, and GAL3, using protocols described herein.
LM(tk-) cells were stably transfected with the human GAL1 or GAL3 receptor. CHO cells were stably transfected with the human GAL2 receptor.
cDNAs for the human and rat GAL1, and human and rat GAL3 receptors were transfected with a G-418 resistant gene into the mouse fibroblast LM(tk-) cell line by a calcium phosphate transfection method (Cullen, 1987). Stably transfected cells were selected with G-418. Human and rat GAL2 receptors were similarly transfected into CHO cells.
Membranes were harvested from stably transfected LM(tk-) cells. Adherent cells were washed twice in ice-cold phosphate buffered saline (138 mM NaCl, 8.1 mM Na2HPO4, 2.5 mM KCl, 1.2 mM KH2PO4, 0.9 mM CaCl2, 0.5 mM MgCl2, pH 7.4) and lysed by sonication in ice-cold sonication buffer (20 mM Tris-HCl, 5 mM EDTA, pH 7.7). Large particles and debris were cleared by low speed centrifugation (200 x g, 5 min, 4°C). Membranes were collected from the supernatant fraction by centrifugation (32,000 x g, 18 min, 4°C), washed with ice-cold hypotonic buffer, and collected again by centrifugation (32,000 x g, 18 min, 4°C). The final membrane pellet was resuspended by sonication into a small volume of ice-cold binding buffer (-1 ml for every 5 plates: 10 mM NaCl, 20 mM HEPES, 0.22 mM KH2PO4, 1.26 mM CaCl2, 0.81 mM MgSO4, pH 7.4). Protein concentration was measured by the Bradford method (Bradford, 1976) using Bio-Rad Reagent, with bovine serum albumin as a standard. Membranes were held on ice for up to one hour and used fresh, or flash frozen and stored in liquid nitrogen. Membranes were prepared similarly from CHO cells.
Galanin Recentors: Binding assays were performed according to the following published methods: human GAL3 (PCT International Publication No. WO 98/15570), human GAL1 (PCT International Publication No. WO 95/2260), human GAL2 (PCT International Publication No. WO 97/26853).
Binding data were analyzed using nonlinear regression and statistical techniques available in the GraphPAD Prism package (San Diego, CA). Enzymatic assay data were derived from a standard curve of reference compound data.

human GAL3 receptor = biological target: T2, human GAL3 receptor (Homo sapiens, UniProt O60755); assay: Radioligand binding at cloned human GAL3 receptor; details: cloned human receptor, read-out: Ki GalR3
T2 construct: expressed in transfected cells
T2 sequence (O60755 1-368): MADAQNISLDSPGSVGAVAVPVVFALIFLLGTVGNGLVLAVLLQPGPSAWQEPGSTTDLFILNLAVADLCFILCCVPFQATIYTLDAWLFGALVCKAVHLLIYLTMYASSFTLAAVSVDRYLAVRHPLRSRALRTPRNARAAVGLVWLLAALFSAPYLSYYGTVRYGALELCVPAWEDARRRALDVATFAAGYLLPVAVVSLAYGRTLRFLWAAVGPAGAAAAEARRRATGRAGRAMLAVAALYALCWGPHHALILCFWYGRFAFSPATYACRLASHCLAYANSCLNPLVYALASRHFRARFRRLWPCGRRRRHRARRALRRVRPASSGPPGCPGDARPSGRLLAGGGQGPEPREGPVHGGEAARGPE
In short: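 Membranes from LM(tk-) cells stably expressing human GAL3, prepared in binding buffer (HEPES-based, pH 7.4), used for radioligand binding. Solvent at final assay concentration: 3% DMSO for indolones, 1% ethanol/0.09% pluronic F-127 for pyrimidines. Binding data analysed by nonlinear regression.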

Male Sprague-Dawley rats = assay: Rat Forced Swim Test (FST); assay type: in vivo; details: for antidepressant profile in the FST (conclusion): overall conclusion of the study
Method: The procedure used in this study was similar to that previously described (Porsolt, et al., 1978), except the water depth (30 cm in this procedure). The greater depth in this test prevented the rats from supporting themselves by touching the bottom of the cylinder with their feet. Swim sessions were conducted by placing rats in individual plexiglass cylinders (46 cm tall x 20 cm in diameter) containing 23-25°C water 30 cm deep (Porsolt, et al. used a depth of only 15 cm; also, see Detke, et al., 1995). Two swim tests were conducted always between 1200 and 1800 hours: an initial 15-min pretest followed 24 h later by a 5-minute test. […] All other test sessions were conducted between 1300 to 1700 hours. Following all swim sessions, rats were removed from the cylinders, dried with paper towels and placed in a heated cage for 15 minutes and returned to their home cages. All test sessions were videotaped using a Panasonic color video camera and recorder for scoring later.
Male Sprague-Dawley rats (Taconic Farms, NY) were used in all experiments. Rats were housed in pairs and maintained on a 12:12-h light-dark cycle. Rats were handled for 5 minutes each day for 5 days prior to behavioral testing.
The rat's behavior was rated at 5 second intervals during the 5 minute test as one of the following: • 1. Immobility- rat remained floating in the water without struggling and was only making those movements necessary to keep its head above water; • 2. Climbing - rat was making active movements with its forepaws in and out of the water, usually directed against the walls; • 3. Swimming - rat was making active swimming motions, more than necessary to merely maintain its head above water, e.g. moving around in the cylinder; and • 4. Diving - entire body of the rat was submerged.
All of the behavior scoring was done by a single rater, who was blind to the treatment condition. The rater was also present in the room throughout the entire test period.
All injections were given using 1 cc tuberculin syringe with 26 3/8 gauge needles (Becton-Dickinson, VWR Scientific, Bridgeport, NJ). The volume of injection was 1 ml/kg.
The drugs were dissolved in 100% N,N-dimethylacetamide. All administrations were given using 1 cc tuberculin syringes, to which a 3 inch, curved, stainless steel gavage needle was attached. The volume of administration was 1 ml/kg.
The compounds were dissolved in 100% N,N-dimethylacetamide. All administrations were given using 1 cc tuberculin syringes, to which a 3 inch, curved, stainless steel gavage needle was attached. The volume of administration was 1 ml/kg.
The forced swim test data (immobility, swimming, climbing, diving) were subjected to a randomized, one-way ANOVA and post hoc tests conducted using the Student-Newman-heuls test. The data were analyzed using the GBSTAT program, version 6.5 (Dynamics Microsystems, Inc., Silver Spring, MD, 1997). All data are presented as means ± S.E.M.

[1] = 5 mg/kg p.o., single administration, 1 hr. before test
[2] = 10 mg/kg i.p., single injection, 5 minute test
[3] = 10 mg/kg p.o., single administration 24 hours before the test day
[4] = 3 mg/kg p.o., single administration 24 hours before the test day
[5] = 1 mg/kg p.o., single administration, 1 hr. before test
[6] = 3 mg/kg p.o., single administration, 1 hr. before test
[7] = 10 mg/kg p.o., single administration, 1 hr. before test

| SMILES | Ki (human GAL2 receptor) [nM] | Ki (human GAL3 receptor; pyrimidines) [nM] | also measured |
| --- | --- | --- | --- |
| Cc1ccc(Nc2cc(N3CCCCC3)nc(N3CCC(c4ccccc4)CC3)n2)cc1 [Example 24] | 3960 | 210 |  |
| Cc1ccc(Nc2cc(N3CCCCC3)nc(N3CCN(c4ccccn4)CC3)n2)cc1 [Example 30] | 2610 | 197 |  |
| Cc1ccc(Nc2cc(N3CCCCC3)nc(N3CCN(c4cc(C(F)(F)F)ccn4)CC3)n2)cc1 [Example 32] | 1860 | 145 |  |
| Cc1ccc(Nc2cc(N3CCCCC3)nc(N3CCN(c4ncccc4C)CC3)n2)cc1 [Example 31] | 3400 | 174 |  |
| Cc1ccc(Nc2cc(N3CCCCC3)nc(N3CCN(c4ncccn4)CC3)n2)cc1 [Example 37] | 903 | 343 |  |
| Cc1ccc(Nc2cc(N(C)C)nc(N3CCC(O)(c4ccccc4)CC3)n2)cc1 [Example 80] | 2480 | 615 |  |
| Cc1ccc(Nc2cc(N(C)C)nc(N(C)C3CCCCC3)n2)cc1 [Example 73] | 1550 | 124 |  |
| CNCCC(Oc1ccc(C(F)(F)F)cc1)c1ccccc1 (centres unmarked) [Fluoxetine, fluoxetine, reference compound] |  |  | Climbing (Male Sprague-Dawley rats; [1]): 1.2 ± 0.4; Diving (Male Sprague-Dawley rats; [1]): 0.0 ± 0.0; Immobility (Male Sprague-Dawley rats; [1]): 45 ± 1.3^c; Swimming (Male Sprague-Dawley rats; [1]): 13.9 ± 1.0; Climbing (Male Sprague-Dawley rats; [2]): 14.3 ± 0.9 counts; Diving (Male Sprague-Dawley rats; [2]): 0.1 ± 0.1; Immobility (Male Sprague-Dawley rats; [2]): 21 ± 0.9^a counts; Swimming (Male Sprague-Dawley rats; [2]): 25 ± 1.2^b counts; Climbing (Male Sprague-Dawley rats; [3]): 3.3 ± 0.6; Diving (Male Sprague-Dawley rats; [3]): 0.2 ± 0.1; Immobility (Male Sprague-Dawley rats; [3]): 35 ± 1.7^a; Swimming (Male Sprague-Dawley rats; [3]): 21.4 ± 1.0^b |
| Cc1ccc(Nc2cc(N3CCCCC3)nc(NCCc3c[nH]c4ccccc34)n2)cc1 [Example 10] | 865 | 100 |  |
| Cc1ccc(Nc2cc(N(C)C)nc(N3CCC(c4ccccc4)CC3)n2)cc1 [Example 81] | 4790 | 160 |  |
| Cc1ccc(Nc2cc(N(C)C)nc(N3CCN(c4ccccc4C)CC3)n2)cc1 [Example 85] | 4230 | 72 |  |
| COCCN(CCc1c[nH]c2ccccc12)c1nc(Nc2ccc(C)cc2)cc(N2CCCCC2)n1 [Example 19] | 1770 | 79 |  |
| O=C1/C(=N\c2ccc(Cl)c(Cl)c2)c2ccccc2N1c1ccsc1 [Example 272, (3Z)-3-[(3,4-DICHLOROPHENYL)IMINO]-1-(3-THIENYL)-1,3-DIHYDRO-2H-INDOL-2-ONE] |  |  | Ki (human GAL3 receptor; indolones): 26 nM; Climbing (Male Sprague-Dawley rats; [4]): 3.9 ± 0.6; Diving (Male Sprague-Dawley rats; [4]): 0.6 ± 0.4; Immobility (Male Sprague-Dawley rats; [4]): 33 ± 1.8^a; Swimming (Male Sprague-Dawley rats; [4]): 22.9 ± 1.3^b; antidepressant profile in the FST (conclusion) (Male Sprague-Dawley rats): has the profile of an antidepressant |
| Cc1ccc(Nc2cc(N(C)C)nc(N(C)c3ccc(C)cc3)n2)cc1 [Example 72] | 2080 | 132 |  |
| Cc1ccc(Nc2cc(N3CCCCC3)nc(N3CCC(O)(c4ccccc4)CC3)n2)cc1 [Example 44] | 1020 | 133 |  |
| CN(C)c1cc(Nc2ccc(Cl)c(Cl)c2)nc(N2CCN(Cc3ccccc3)CC2)n1 [Example 151] |  | 11 | Climbing (Male Sprague-Dawley rats; [5]): 2.3 ± 0.6; Diving (Male Sprague-Dawley rats; [5]): 0.2 ± 0.2; Immobility (Male Sprague-Dawley rats; [5]): 41 ± 2.0; Swimming (Male Sprague-Dawley rats; [5]): 16.8 ± 1.4^d; Climbing (Male Sprague-Dawley rats; [6]): 2.4 ± 0.5; Diving (Male Sprague-Dawley rats; [6]): 0.3 ± 0.2; Immobility (Male Sprague-Dawley rats; [6]): 38 ± 2.0^a; Swimming (Male Sprague-Dawley rats; [6]): 19.5 ± 1.5^e; Climbing (Male Sprague-Dawley rats; [7]): 2.2 ± 0.5; Diving (Male Sprague-Dawley rats; [7]): 0.3 ± 0.2; Immobility (Male Sprague-Dawley rats; [7]): 39 ± 1.8^b; Swimming (Male Sprague-Dawley rats; [7]): 18.9 ± 1.5^e; antidepressant profile in the FST (conclusion) (Male Sprague-Dawley rats): resemble those of antidepressants |
| COc1cc2c(cc1OC)CN(c1nc(Nc3ccc(C)cc3)cc(N3CCCCC3)n1)CC2 [Example 42] | 1140 | 275 |  |
| Cc1ccc(Nc2cc(N(C)C)nc(N3CCN(c4ccc(C)cc4)CC3)n2)cc1 [Example 87] | 4620 | 157 |  |
| CN(CCc1c[nH]c2ccccc12)c1nc(Nc2cccc(F)c2)cc(N2CCCCC2)n1 [Example 14] | 1340 | 54 |  |
| Cc1ccc(Nc2cc(N3CCCCC3)nc(N3CCCc4ccccc43)n2)cc1 [Example 40] | 2620 | 164 |  |
| Cc1ccc(Nc2cc(N3CCCCC3)nc(N(C)c3ccccc3)n2)cc1 [Example 6] | 2160 | 248 |  |
| CCc1ccccc1N1CCN(c2nc(Nc3ccc(C)cc3)cc(N3CCCCC3)n2)CC1 [Example 26] | 4050 | 85 |  |
| Cc1ccc(Nc2cc(N3CCCCC3)nc(NCCc3c[nH]c4ccc(C)cc34)n2)cc1 [Example 8] | 795 | 264 |  |
| COc1ccc2[nH]cc(CCNc3nc(Nc4ccc(C)cc4)cc(N4CCCCC4)n3)c2c1 [Example 9] | 2110 | 568 |  |
